{
  "source": "paper PMC8434401",
  "about": "“Trifluoromethylated Flavonoid-Based Isoxazoles as Antidiabetic and Anti-Obesity Agents: Synthesis, In Vitro α-Amylase Inhibitory Activity, Molecular Docking and Structure–Activity Relationship Analysis” (Molecules, 2021)",
  "key": {"[1]": {"target": "Aspergillus oryzae α-amylase (Aspergillus oryzae, UniProt P0C1B3)", "test": "biochemical", "settings": "for inhibition at 50 µM: read-out: α-Amylase Inhibition PI ± SEM% (percentage inhibition)", "procedure": "The α-amylase inhibition assays were carried out according to the protocol described by Chortani et al. (2021), with some modifications. In short, all of the compounds were dissolved in DMSO and then diluted in sodium phosphate buffer (0.02 M, pH 6.9 with 0.006 M NaCl). […] The samples were tested at different concentrations of 50, 25, 12.5, and 6.25 μM. After that, 50 μL of the sample solution was added to 50 μL of Aspergillus oryzae α-amylase solution (0.5 mg/mL) dissolved in the same buffer medium. After pre-incubation for 10 min at 25 °C, 50 μL of starch solution (1% in buffer solution) was added to the mixture. After 10 min of incubation at 25 °C, the product of the reaction was mixed with 100 μL of 3,5-dinitrosalicylic acid solution. At this point, the test tubes were placed for 5 min in a boiling water bath (100 °C), followed by cooling to room temperature. Next, each solution was diluted with 1 mL of distilled water. Over time, the absorbance was measured at 540 nm using a Thermo Scientific™ Multiskan™ GO Microplate Spectrophotometer using a 96-well microplate.\nThe α-amylase inhibitory activity was determined as follows:PI (%) = 100[(AbsControl−AbsSample)/(AbsControl)] where AbsControl is the absorbance of the solution without sample (buffer instead of the sample solution) and AbsSample is the absorbance of the mixture with the solution of the sample to be tested. […] Each assay was conducted in triplicate."}, "[2]": {"settings": "Table S1, from the concentration-response curves used to calculate the IC50 values (concentrations in μM), read-out: log(IC50) (converted)"}, "[3]": {"settings": "potency, concentration providing 50% inhibition, mean ± SEM, triplicate, read-out: α-Amylase Inhibition IC50 ± SEM"}},
  "note": "Read-outs that look alike come from different tables or passages of the source.",
  "data": [
    {"smiles": "C[C@H]1O[C@H](O[C@H]2[C@H](O)[C@@H](O)[C@@H](O[C@H]3[C@H](O)[C@@H](O)C(O)O[C@@H]3CO)O[C@@H]2CO)[C@H](O)[C@@H](O)[C@@H]1N[C@H]1C=C(CO)[C@@H](O)[C@H](O)[C@H]1O", "note": "(stereo partly shown) [Acarbose, reference compound]", "values": [
      {"measurement": "inhibition at 50 µM", "setting": "[1]", "result": "97.8 ± 0.5", "unit": "%"}
    ]},
    {"smiles": "O=c1c(O)c(-c2ccc(C(F)(F)F)cc2)oc2ccc(Cl)cc12", "note": "[Compound 1, 6-Chloro-3-hydroxy-2-(4-(trifluoromethyl)phenyl)-4H-chromen-4-one]", "values": [
      {"measurement": "IC50", "setting": "[1]; [2]", "result": 15.3, "unit": "µM"},
      {"measurement": "IC50", "setting": "[1]; [3]", "result": "15.3 ± 0.4", "unit": "µM"},
      {"measurement": "inhibition at 50 µM", "setting": "[1]", "result": "75.2 ± 1.4", "unit": "%"},
      {"measurement": "melting point", "result": 275, "unit": "°C"}
    ]},
    {"smiles": "C#CCOc1c(-c2ccc(C(F)(F)F)cc2)oc2ccc(Cl)cc2c1=O", "note": "[Compound 2, 6-Chloro-3-(prop-2-yn-1-yloxy)-2-(4-(trifluoromethyl)phenyl)-4H-chromen-4-one]", "values": [
      {"measurement": "IC50", "setting": "[1]; [2]", "result": 17.7, "unit": "µM"},
      {"measurement": "IC50", "setting": "[1]; [3]", "result": "17.7 ± 0.2", "unit": "µM"},
      {"measurement": "inhibition at 50 µM", "setting": "[1]", "result": "75.2 ± 0.3", "unit": "%"},
      {"measurement": "melting point", "result": 122, "unit": "°C"}
    ]},
    {"smiles": "O=c1c(OCc2cc(-c3ccccc3)no2)c(-c2ccc(C(F)(F)F)cc2)oc2ccc(Cl)cc12", "note": "[Compound 3a, 6-Chloro-3-((3-phenylisoxazol-5-yl)methoxy)-2-(4-(trifluoromethyl)phenyl)-4H-chromen-4-one]", "values": [
      {"measurement": "IC50", "setting": "[1]; [2]", "result": 27.2, "unit": "µM"},
      {"measurement": "IC50", "setting": "[1]; [3]", "result": "27.2 ± 0.7", "unit": "µM"},
      {"measurement": "inhibition at 50 µM", "setting": "[1]", "result": "65.6 ± 0.2", "unit": "%"},
      {"measurement": "melting point", "result": 134, "unit": "°C"}
    ]},
    {"smiles": "O=c1c(OCc2cc(-c3ccc(F)cc3)no2)c(-c2ccc(C(F)(F)F)cc2)oc2ccc(Cl)cc12", "note": "[Compound 3b, 6-Chloro-3-((3-(4-fluorophenyl)isoxazol-5-yl)methoxy)-2-(4-(trifluoromethyl)phenyl)-4H-chromen-4-one]", "values": [
      {"measurement": "IC50", "setting": "[1]; [2]", "result": 12.6, "unit": "µM"},
      {"measurement": "IC50", "setting": "[1]; [3]", "result": "12.6 ± 0.2", "unit": "µM"},
      {"measurement": "inhibition at 50 µM", "setting": "[1]", "result": "94.7 ± 1.2", "unit": "%"},
      {"measurement": "melting point", "result": 147, "unit": "°C"}
    ]},
    {"smiles": "O=c1c(OCc2cc(-c3ccc(Cl)cc3)no2)c(-c2ccc(C(F)(F)F)cc2)oc2ccc(Cl)cc12", "note": "[Compound 3c, 6-Chloro-3-((3-(4-chlorophenyl)isoxazol-5-yl)methoxy)-2-(4-(trifluoromethyl)phenyl)-4H-chromen-4-one]", "values": [
      {"measurement": "IC50", "setting": "[1]; [2]", "result": 14.4, "unit": "µM"},
      {"measurement": "IC50", "setting": "[1]; [3]", "result": "14.4 ± 0.2", "unit": "µM"},
      {"measurement": "inhibition at 50 µM", "setting": "[1]", "result": "87.1 ± 0.7", "unit": "%"},
      {"measurement": "melting point", "result": 177, "unit": "°C"}
    ]},
    {"smiles": "O=c1c(OCc2cc(-c3ccc(Br)cc3)no2)c(-c2ccc(C(F)(F)F)cc2)oc2ccc(Cl)cc12", "note": "[Compound 3d, 3-((3-(4-Bromophenyl)isoxazol-5-yl)methoxy)-6-chloro-2-(4-(trifluoromethyl)phenyl)-4H-chromen-4-one]", "values": [
      {"measurement": "IC50", "setting": "[1]; [2]", "result": 14.6, "unit": "µM"},
      {"measurement": "IC50", "setting": "[1]; [3]", "result": "14.6 ± 0.3", "unit": "µM"},
      {"measurement": "inhibition at 50 µM", "setting": "[1]", "result": "85.4 ± 0.9", "unit": "%"},
      {"measurement": "melting point", "result": 179, "unit": "°C"}
    ]},
    {"smiles": "Cc1ccc(-c2cc(COc3c(-c4ccc(C(F)(F)F)cc4)oc4ccc(Cl)cc4c3=O)on2)cc1", "note": "[Compound 3e, 6-Chloro-3-((3-(p-tolyl)isoxazol-5-yl)methoxy)-2-(4-(trifluoromethyl)phenyl)-4H-chromen-4-one]", "values": [
      {"measurement": "IC50", "setting": "[1]; [2]", "result": 26, "unit": "µM"},
      {"measurement": "IC50", "setting": "[1]; [3]", "result": "26 ± 0.7", "unit": "µM"},
      {"measurement": "inhibition at 50 µM", "setting": "[1]", "result": "65.4 ± 0.4", "unit": "%"},
      {"measurement": "melting point", "result": 171, "unit": "°C"}
    ]},
    {"smiles": "CC(C)(C)c1ccc(-c2cc(COc3c(-c4ccc(C(F)(F)F)cc4)oc4ccc(Cl)cc4c3=O)on2)cc1", "note": "[Compound 3f, 3-((3-(4-(Tert-butyl)phenyl)isoxazol-5-yl)methoxy)-6-chloro-2-(4-(trifluoromethyl)phenyl)-4H-chromen-4-one]", "values": [
      {"measurement": "IC50", "setting": "[1]; [2]", "result": 27.6, "unit": "µM"},
      {"measurement": "IC50", "setting": "[1]; [3]", "result": "27.6 ± 1.1", "unit": "µM"},
      {"measurement": "inhibition at 50 µM", "setting": "[1]", "result": "64.5 ± 0.7", "unit": "%"},
      {"measurement": "melting point", "result": 112, "unit": "°C"}
    ]},
    {"smiles": "O=c1c(OCc2cc(-c3ccc([N+](=O)[O-])cc3)no2)c(-c2ccc(C(F)(F)F)cc2)oc2ccc(Cl)cc12", "note": "[Compound 3g, 6-Chloro-3-((3-(4-nitrophenyl)isoxazol-5-yl)methoxy)-2-(4-(trifluoromethyl)phenyl)-4H-chromen-4-one]", "values": [
      {"measurement": "IC50", "setting": "[1]; [2]", "result": 18.1, "unit": "µM"},
      {"measurement": "IC50", "setting": "[1]; [3]", "result": "18.1 ± 0.3", "unit": "µM"},
      {"measurement": "inhibition at 50 µM", "setting": "[1]", "result": "74.7 ± 0.3", "unit": "%"},
      {"measurement": "melting point", "result": 175, "unit": "°C"}
    ]},
    {"smiles": "COc1ccc(-c2cc(COc3c(-c4ccc(C(F)(F)F)cc4)oc4ccc(Cl)cc4c3=O)on2)cc1", "note": "[Compound 3h, 6-Chloro-3-((3-(4-methoxyphenyl)isoxazol-5-yl)methoxy)-2-(4-(trifluoromethyl)phenyl)-4H-chromen-4-one]", "values": [
      {"measurement": "IC50", "setting": "[1]; [2]", "result": 13.3, "unit": "µM"},
      {"measurement": "IC50", "setting": "[1]; [3]", "result": "13.3 ± 0.2", "unit": "µM"},
      {"measurement": "inhibition at 50 µM", "setting": "[1]", "result": "93.5 ± 1.1", "unit": "%"},
      {"measurement": "melting point", "result": 152, "unit": "°C"}
    ]},
    {"smiles": "CCCCOc1ccc(-c2cc(COc3c(-c4ccc(C(F)(F)F)cc4)oc4ccc(Cl)cc4c3=O)on2)cc1", "note": "[Compound 3i, 3-((3-(4-Butoxyphenyl)isoxazol-5-yl)methoxy)-6-chloro-2-(4-(trifluoromethyl)phenyl)-4H-chromen-4-one]", "values": [
      {"measurement": "IC50", "setting": "[1]; [2]", "result": 15.6, "unit": "µM"},
      {"measurement": "IC50", "setting": "[1]; [3]", "result": "15.6 ± 0.2", "unit": "µM"},
      {"measurement": "inhibition at 50 µM", "setting": "[1]", "result": "79.4 ± 1", "unit": "%"},
      {"measurement": "melting point", "result": 130, "unit": "°C"}
    ]},
    {"smiles": "CCCCOc1ccc(-c2cc(COc3c(-c4ccc(C(F)(F)F)cc4)oc4ccc(Cl)cc4c3=O)on2)cc1Cl", "note": "[Compound 3j, 3-((3-(4-Butoxy-3-chlorophenyl)isoxazol-5-yl)methoxy)-6-chloro-2-(4-(trifluoromethyl)phenyl)-4H-chromen-4-one]", "values": [
      {"measurement": "IC50", "setting": "[1]; [2]", "result": 13.7, "unit": "µM"},
      {"measurement": "IC50", "setting": "[1]; [3]", "result": "13.7 ± 0.2", "unit": "µM"},
      {"measurement": "inhibition at 50 µM", "setting": "[1]", "result": "93.1 ± 0.9", "unit": "%"},
      {"measurement": "melting point", "result": 134, "unit": "°C"}
    ]},
    {"smiles": "COc1ccc(-c2cc(COc3c(-c4ccc(C(F)(F)F)cc4)oc4ccc(Cl)cc4c3=O)on2)cc1Cl", "note": "[Compound 3k, 6-Chloro-3-((3-(3-chloro-4-methoxyphenyl)isoxazol-5-yl)methoxy)-2-(4-(trifluoromethyl)phenyl)-4H-chromen-4-one]", "values": [
      {"measurement": "IC50", "setting": "[1]; [2]", "result": 21, "unit": "µM"},
      {"measurement": "IC50", "setting": "[1]; [3]", "result": "21 ± 0.6", "unit": "µM"},
      {"measurement": "inhibition at 50 µM", "setting": "[1]", "result": "72.5 ± 1.1", "unit": "%"},
      {"measurement": "melting point", "result": 141, "unit": "°C"}
    ]},
    {"smiles": "COc1ccc(-c2cc(COc3c(-c4ccc(C(F)(F)F)cc4)oc4ccc(Cl)cc4c3=O)on2)cc1Br", "note": "[Compound 3l, 3-((3-(3-Bromo-4-methoxyphenyl)isoxazol-5-yl)methoxy)-6-chloro-2-(4-(trifluoromethyl)phenyl)-4H-chromen-4-one]", "values": [
      {"measurement": "IC50", "setting": "[1]; [2]", "result": 23, "unit": "µM"},
      {"measurement": "IC50", "setting": "[1]; [3]", "result": "23 ± 0.2", "unit": "µM"},
      {"measurement": "inhibition at 50 µM", "setting": "[1]", "result": "70.4 ± 0.4", "unit": "%"},
      {"measurement": "melting point", "result": 144, "unit": "°C"}
    ]},
    {"smiles": "COc1ccc(-c2cc(COc3c(-c4ccc(C(F)(F)F)cc4)oc4ccc(Cl)cc4c3=O)on2)cc1OC", "note": "[Compound 3m, 6-Chloro-3-((3-(3,4-dimethoxyphenyl)isoxazol-5-yl)methoxy)-2-(4-(trifluoromethyl)phenyl)-4H-chromen-4-one]", "values": [
      {"measurement": "IC50", "setting": "[1]; [2]", "result": 13.8, "unit": "µM"},
      {"measurement": "IC50", "setting": "[1]; [3]", "result": "13.8 ± 0.1", "unit": "µM"},
      {"measurement": "inhibition at 50 µM", "setting": "[1]", "result": "93.3 ± 2", "unit": "%"},
      {"measurement": "melting point", "result": 152, "unit": "°C"}
    ]}
  ]
}
